Measured values as given in patent US20120029071A1, “COMPOSITIONS AND METHODS FOR TREATING OR PREVENTING RADIATION INJURY” (THE JOHNS HOPKINS UNIVERSITY, priority 2008, published 2012).
“Also recorded” adds a separate entry of the source.

Experiments:
[1] = tested on: GCLC, GCLm and NQO1 genes; assay: Expression of Nrf2 regulated antioxidant genes in multiple tissues post TBI by quantitative RT-PCR; type: in vivo, mice; settings: small intestine, colon, lung, liver, kidney, salivary gland and other organs
Source text: FIG. 5 is a table that quantifies Nrf2 regulated antioxidant defenses in multiple tissues of mice treated with CDDO-Me post TBI.

[2] = tested on: Nrf2+/+ mice; assay: TBI induced mortality in Nrf2+/+ mice after CDDO-Me treatment; type: in vivo; settings: for mortality: survival monitored for 30 days, vehicle 100% mortality
Procedure: (§1) FIG. 2 includes three graphs, which provide proof of concept studies with Nrf2 activator, showing quantitation of TBI induced Mortality in Nrf2−/− mice and Nrf2+/+ mice after CDDO-me (small molecule Nrf2 activator) or vehicle treatment. One hour and 24 hours after TBI mice (n=10/gp) mice were treated with CDDO-Me. Survival was monitored for 30 days.
(§2) To determine if pharmacological activation of Nrf2 improves survival following TBI, we treated Nrf2+/+ and Nrf2−/− with the small molecule, CDDO-Me, a potent Nrf2 activator 1 hour and 24 hours after TBI.

[3] = tested on: Nrf2−/− mice; assay: TBI induced mortality in Nrf2-/- mice after CDDO-Me treatment; type: in vivo; settings: treated 1 hour post-TBI
Procedure: as §1, §2

[4] = tested on: mice; assay: TBI induced gastrointestinal (GI) injury: villi morphology and crypt cell proliferation (BrdU); type: in vivo; settings: treatment post 1 h TBI, day 9 post TBI, vs vehicle; for mucosal injury (length of villi): histopathology
Procedure: FIGS. 3A-3D show TBI induced GI injury in Nrf2+/+ and Nrf2−/− mice after CDDO-me or vehicle treatment. One hour after TBI […] mice (n=10/gp) mice were treated with CDDO-Me. GI injury was assessed by mucosal damage by histopathalogical analysis (FIGS. 3A and 3B) and crypt cell proliferation by BrdU immunohistochemistry staining (FIGS. 3C and 3D).
To analyze the GI injury, villi morphology and proliferation of crypt cells were quantified by immunohistochemistry and BrdU labeling on day 9 post TBI.

[5] = tested on: hematopoietic stem cells and progenitors cell; assay: TBI induced hematopoietic injury, bone marrow clonogenic assay; type: in vivo, mice; settings: bone marrow clonogenic assay after TBI, vs vehicle
Procedure: FIG. 4 is a graph quantitating TBI induced HP injury in mice after CDDO-me or vehicle treatment as assessed by bone marrow clonogenic assay.
To assess the protective effect of CDDO-Me on hematopoietic injury, bone marrow was analyzed in a clonogenic assay.

SMILES: COC(=O)[C@]12CCC(C)(C)C[C@H]1[C@H]1C(=O)C=C3[C@@]4(C)C=C(C#N)C(=O)C(C)(C)[C@@H]4CC[C@@]3(C)[C@]1(C)CC2 [CDDO-Me]
- expression of antioxidant genes (GCLC, GCLm, NQO1) [1]: markedly upregulated antioxidant genes
- TBI induced mortality ([2]; treated 1 hour and 24 hours after TBI, vs vehicle): markedly inhibited TBI induced mortality
- mortality ([2]; treated 1 hour post-TBI): 0%
- mortality ([2]; treated 24 hours post-TBI): 25%
- survival following TBI [3]: failed to improve survival
- crypt cell proliferation (BrdU staining) ([4]; BrdU immunohistochemistry): significantly mitigated loss of crypt cells; also recorded: marked improvement in crypt cell proliferation
- mucosal injury (length of villi) [4]: significantly mitigated reduction in gastrointestinal villi
- mucosal injury (length of villi) ([4]; listed as CDDO-me): markedly ameliorated mucosal injury
- protection of hematopoietic stem cells and progenitors (granulocyte/macrophage colony forming cells) [5]: markedly protected hematopoietic stem cells and progenitors cell
